“Also recorded” adds a separate entry of the source.
What was measured:
[1] = GSH arylation rate constants (NMR; UV-vis for fast warheads); assay type: physicochemical; conditions: for k: Table S8, rate constants obtained at pH = 7; for k/kref / ΔΔG≠1exp: relative to 4q; for ΔΔG≠1exp: via -RTln(k/kref)
Outline: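 Second-order rate constants k for GSH arylation derived from pseudo-first-order k′ (warhead:GSH 1:10), by normalized NMR integration of the disappearing warhead signal over 6 h; TMSP internal standard. KPi buffer with 5% d6-DMSO, pH 7.0 and 6.5, 20 °C; UV–vis used for fast warheads. Mean of ≥2 independent runs.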

p53-Y220C = biological target: T1, p53-Y220C (Homo sapiens, UniProt P04637, M133L/N239Y/N268D/V203A/Y220C); assay: Differential scanning fluorimetry (DSF); assay type: binding; conditions: 100 μM compound; 8 µM p53-Y220C; read-out: Protein thermal stability ΔTm
T1 construct: (residues 94-312); 6xHis/lipoyl domain/TEV protease cleavage site (N, cleaved yes); made in house; host or cells: E. coli C41
Source text: We also probed the general effect of 2-SPs on protein stability by using differential scanning fluorimetry (DSF). […] Mutants of the 25 kDa DNA-binding domain of the tumor suppressor p53 are notorious for their reduced thermal stability and denaturation/aggregation propensity.[37] The 56 kDa armadillo domain (ARD) of β-catenin mediates canonical Wnt signaling and plays a central role in embryogenesis and tissue homeostasis.[38] FGE (37 kDa) is the only known activator of human sulfatases, and its stability is susceptible to modification of its cysteines.[39] […]
described.7 Briefly, the N-terminal fusion protein (6xHis/lipoyl domain/TEV protease cleavage site) was overexpressed using E. coli C41 cells in 2xTY medium at 20°C for 16 h and purified using standard Ni-affinity chromatography protocols. […]
was further purified using a Heparin column. Finally, gel filtration chromatography was performed using a Superdex 75 16/60 preparative gel filtration column (GE Healthcare) in a 25 mM KPi (pH 7.2), 150 […]
mM NaCl, and 1 mM TCEP buffer. […]
gel electrophoresis and ESI-MS. […]

[2] = pH 6.5, by NMR, KPi buffer, 5% DMSO-d6
[3] = pH 7.0, by NMR, KPi buffer, 5% DMSO-d6
[4] = pH 7.0, ratio to rate constant of 4q, acceleration (+) or deceleration (-)
[5] = pH 6.5, measured by UV titrations
[6] = pH 7.0, measured by UV titrations
[7] = pH 7.0, ratio to 4q, from value measured by UV titrations (footnote a)

COc1ccnc(S(C)(=O)=O)n1 [4b]
k [1]: 0.0045 M⁻¹ s⁻¹ | rate constant (k) for the reaction with GSH [1, 2]: 0.0013 ± 0.0008 M⁻¹ s⁻¹ | rate constant (k) for the reaction with GSH [1, 3]: 0.0045 ± 0.0005 M⁻¹ s⁻¹ | k change (vs ref) [1, 4]: -6 fold | k/kref [1]: 0.18 | ΔΔG≠1exp [1]: 1.03 kcal/mol | ΔTm at 100 µM (p53-Y220C): 0.2 °C

CS(=O)(=O)c1ncc(I)cn1 [4u]
rate constant (k) for the reaction with GSH [1, 2]: 0.025 ± 0.01 M⁻¹ s⁻¹ | rate constant (k) for the reaction with GSH [1, 3]: 0.66 ± 0.01 M⁻¹ s⁻¹ | k change (vs ref) [1, 4]: +26 fold | ΔTm at 100 µM (p53-Y220C): 0.4 °C

COC(=O)c1ccnc(S(C)(=O)=O)n1 [4k]
k [1]: 2.8 M⁻¹ s⁻¹ | rate constant (k) for the reaction with GSH [1, 2]: 0.26 ± 0.045 M⁻¹ s⁻¹ | rate constant (k) for the reaction with GSH [1, 5]: 0.37 ± 0.063 M⁻¹ s⁻¹ | rate constant (k) for the reaction with GSH [1, 6]: 2.8 ± 1.1 M⁻¹ s⁻¹ | k change (vs ref) [1, 7]: +112 fold | k/kref [1]: 112 | ΔΔG≠1exp [1]: -2.87 kcal/mol | ΔTm at 100 µM (p53-Y220C): 0.4 °C

CS(=O)(=O)c1ncc(C(=O)O)cn1 [4v]
k [1]: 30 M⁻¹ s⁻¹ | rate constant (k) for the reaction with GSH [1, 5]: 6.7 ± 3.1 M⁻¹ s⁻¹ | rate constant (k) for the reaction with GSH [1, 6]: 30 ± 3.2 M⁻¹ s⁻¹ | k change (vs ref) [1, 4]: +1,200 fold | k/kref [1]: 1200 | ΔΔG≠1exp [1]: -4.3 kcal/mol | ΔTm at 100 µM (p53-Y220C): 3 °C

CS(=O)(=O)c1nccc(C(N)=O)n1 [4j]
rate constant (k) for the reaction with GSH [1, 2]: 0.095 ± 0.015 M⁻¹ s⁻¹ | rate constant (k) for the reaction with GSH [1, 3]: 0.3 ± 0.0025 M⁻¹ s⁻¹ | k change (vs ref) [1, 4]: +12 fold | ΔTm at 100 µM (p53-Y220C): -0.2 ± 0.1 °C

O=S(=O)(NCc1ccccc1)c1ncccn1 [5g]
rate constant (k) for the reaction with GSH [1, 2]: 0.00015 ± 5e-05 M⁻¹ s⁻¹ | rate constant (k) for the reaction with GSH [1, 3]: 0.0004 ± 0.0001 M⁻¹ s⁻¹ | k change (vs ref) [1, 4]: -63 fold | ΔTm at 100 µM (p53-Y220C): 0.2 °C

O=[N+]([O-])c1ccc(S(=O)(=O)c2ncccn2)cc1 [5f]
k [1]: 0.29 M⁻¹ s⁻¹ | rate constant (k) for the reaction with GSH [1, 5]: 0.2 ± 0.09 M⁻¹ s⁻¹ | rate constant (k) for the reaction with GSH [1, 6]: 0.29 ± 0.17 M⁻¹ s⁻¹ | k change (vs ref) [1, 4]: +12 fold | k/kref [1]: 12 | ΔΔG≠1exp [1]: -1.46 kcal/mol | ΔTm at 100 µM (p53-Y220C): 0.4 °C

CS(=O)(=O)c1ncccn1 [4q, 2-methylsulfonylpyrimidine]
times faster at pH 7.0 vs 6.5 ([1]; GSH): approximately 5 times | k [1]: 0.0250 M⁻¹ s⁻¹ | rate constant (k) for the reaction with GSH [1, 2]: 0.004 ± 0.0016 M⁻¹ s⁻¹ | times slower with GSH than with NACME ([1]; pH 7.0): approximately 3 times | second order rate constant k with GSH ([1]; pH 7.0, KPi buffer): ≈ 1.6 × 10^–2 M^–1 s^–1; also recorded: ≈ 1.2 × 10^–2 M^–1 s^–1 | rate constant (k) for the reaction with GSH [1, 3]: 0.025 ± 0.014 M⁻¹ s⁻¹ | k/kref [1]: 1 | ΔΔG≠1exp [1]: 0 kcal/mol | ΔTm at 100 µM (p53-Y220C): -0.2 ± 0.1 °C

CS(=O)(=O)c1nccc(N)n1 [4g]
k [1]: 0.023 M⁻¹ s⁻¹ | rate constant (k) for the reaction with GSH [1, 2]: 0.032 ± 0.006 M⁻¹ s⁻¹ | rate constant (k) for the reaction with GSH [1, 3]: 0.023 ± 0.003 M⁻¹ s⁻¹ | k change (vs ref) [1, 4]: ≈ | k/kref [1]: 0.92 | ΔΔG≠1exp [1]: 0.0502 kcal/mol | ΔTm at 100 µM (p53-Y220C): -0.2 ± 0.1 °C

CS(=O)(=O)c1nccc(C(F)(F)F)n1 [4l]
k [1]: 21 M⁻¹ s⁻¹ | rate constant (k) for the reaction with GSH [1, 5]: 4.9 ± 0.48 M⁻¹ s⁻¹ | second order rate constant k with GSH ([1]; pH 7.0, KPi buffer): ≈ 21 M^–1 s^–1 | rate constant (k) for the reaction with GSH [1, 6]: 21 ± 0.6 M⁻¹ s⁻¹ | k change (vs ref) [1, 7]: +840 fold | k/kref [1]: 840 | ΔΔG≠1exp [1]: -4.06 kcal/mol | ΔTm at 100 µM (p53-Y220C): 1.8 °C

CS(=O)(=O)c1ncc(-c2ccccc2)cn1 [4p]
rate constant (k) for the reaction with GSH [1, 2]: 0.01 ± 0.005 M⁻¹ s⁻¹ | rate constant (k) for the reaction with GSH [1, 3]: 0.012 ± 0.0078 M⁻¹ s⁻¹ | k change (vs ref) [1, 4]: -2 fold | ΔTm at 100 µM (p53-Y220C): 0.2 °C

Nc1ccc(S(=O)(=O)c2ncccn2)cc1 [5b]
k [1]: 0.0050 M⁻¹ s⁻¹ | rate constant (k) for the reaction with GSH [1, 2]: 0.002 M⁻¹ s⁻¹ | rate constant (k) for the reaction with GSH [1, 3]: 0.005 M⁻¹ s⁻¹ | k change (vs ref) [1, 4]: -5 fold | k/kref [1]: 0.20 | ΔΔG≠1exp [1]: 0.956 kcal/mol | ΔTm at 100 µM (p53-Y220C): -0.2 ± 0.1 °C

CCCCS(=O)(=O)c1ncccn1 [5c]
rate constant (k) for the reaction with GSH [1, 2]: 0.0028 ± 0.0003 M⁻¹ s⁻¹ | rate constant (k) for the reaction with GSH [1, 3]: 0.01 M⁻¹ s⁻¹ | k change (vs ref) [1, 4]: -3 fold | ΔTm at 100 µM (p53-Y220C): 0 °C

CS(=O)(=O)c1ncc(C(F)(F)F)cn1 [4x]
k [1]: 1900 M⁻¹ s⁻¹ | k change (vs ref) [1, 4]: +76,000 fold | k/kref [1]: 76000 | ΔΔG≠1exp [1]: -6.69 kcal/mol | ΔTm at 100 µM (p53-Y220C): 0.8 °C

CS(=O)(=O)c1ncc(Br)cn1 [4t]
k [1]: 0.29 M⁻¹ s⁻¹ | rate constant (k) for the reaction with GSH [1, 2]: 0.056 ± 0.034 M⁻¹ s⁻¹ | rate constant (k) for the reaction with GSH [1, 3]: 0.29 ± 0.25 M⁻¹ s⁻¹ | k change (vs ref) [1, 4]: +12 fold | k/kref [1]: 12 | ΔΔG≠1exp [1]: -1.46 kcal/mol | ΔTm at 100 µM (p53-Y220C): 0.4 °C

Cc1cc(C)nc(S(C)(=O)=O)n1 [4a]
k [1]: 0.0010 M⁻¹ s⁻¹ | rate constant (k) for the reaction with GSH [1, 2]: 0.00038 ± 8e-05 M⁻¹ s⁻¹ | rate constant (k) for the reaction with GSH [1, 3]: 0.001 M⁻¹ s⁻¹ | k change (vs ref) [1, 4]: -25 fold | k/kref [1]: 0.040 | ΔΔG≠1exp [1]: 1.91 kcal/mol | ΔTm at 100 µM (p53-Y220C): 0 °C

CS(=O)(=O)c1ncc(Br)c(C(=O)O)n1 [4i]
rate constant (k) for the reaction with GSH [1, 2]: 0.075 ± 0.035 M⁻¹ s⁻¹ | rate constant (k) for the reaction with GSH [1, 5]: 0.15 ± 0.09 M⁻¹ s⁻¹ | rate constant (k) for the reaction with GSH [1, 3]: 0.3 ± 0.013 M⁻¹ s⁻¹ | rate constant (k) for the reaction with GSH [1, 6]: 0.64 ± 0.009 M⁻¹ s⁻¹ | k change (vs ref) [1, 7]: +26 fold | k change (vs ref) [1, 4]: +12 fold | ΔTm at 100 µM (p53-Y220C): 0.8 °C

COc1cc(OC)nc(S(C)(=O)=O)n1 [4f, 4,6-dimethoxy-2-methylsulfonylpyrimidine]
k [1]: 0.010 M⁻¹ s⁻¹ | rate constant (k) for the reaction with GSH [1, 2]: 0.003 ± 0.0005 M⁻¹ s⁻¹ | rate constant (k) for the reaction with GSH [1, 3]: 0.01 M⁻¹ s⁻¹ | k change (vs ref) [1, 4]: -3 fold | k/kref [1]: 0.40 | ΔΔG≠1exp [1]: 0.55 kcal/mol | ΔTm at 100 µM (p53-Y220C): -0.2 ± 0.1 °C

CS(=O)(=O)c1nccc(C(=O)O)n1 [4d]
k [1]: 0.0050 M⁻¹ s⁻¹ | rate constant (k) for the reaction with GSH [1, 2]: 0.0015 M⁻¹ s⁻¹ | rate constant (k) for the reaction with GSH [1, 3]: 0.005 M⁻¹ s⁻¹ | k change (vs ref) [1, 4]: -5 fold | k/kref [1]: 0.20 | ΔΔG≠1exp [1]: 0.956 kcal/mol | ΔTm at 100 µM (p53-Y220C): 0.2 °C

O=S(=O)(Oc1c(F)c(F)c(F)c(F)c1F)c1ncccn1 [5h]
k [1]: 24 M⁻¹ s⁻¹ | rate constant (k) for the reaction with GSH [1, 5]: 5.4 ± 0.72 M⁻¹ s⁻¹ | rate constant (k) for the reaction with GSH [1, 6]: 24 ± 1.1 M⁻¹ s⁻¹ | k change (vs ref) [1, 4]: +960 fold | k/kref [1]: 960 | ΔΔG≠1exp [1]: -4.06 kcal/mol | ΔTm at 100 µM (p53-Y220C): 0.4 °C

Cc1ccnc(S(C)(=O)=O)n1 [4c]
k [1]: 0.0043 M⁻¹ s⁻¹ | rate constant (k) for the reaction with GSH [1, 2]: 0.0015 ± 0.0005 M⁻¹ s⁻¹ | rate constant (k) for the reaction with GSH [1, 3]: 0.0043 ± 0.0008 M⁻¹ s⁻¹ | k change (vs ref) [1, 4]: -6 fold | k/kref [1]: 0.17 | ΔΔG≠1exp [1]: 1.05 kcal/mol | ΔTm at 100 µM (p53-Y220C): -0.2 ± 0.1 °C

CS(=O)(=O)c1nccc(-c2ccccc2)n1 [4e]
rate constant (k) for the reaction with GSH [1, 2]: 0.002 ± 0.0005 M⁻¹ s⁻¹ | rate constant (k) for the reaction with GSH [1, 3]: 0.005 M⁻¹ s⁻¹ | k change (vs ref) [1, 4]: -5 fold | ΔTm at 100 µM (p53-Y220C): 0.2 °C

O=S(=O)(CC(F)(F)F)c1ncccn1 [5e]
k [1]: 0.23 M⁻¹ s⁻¹ | rate constant (k) for the reaction with GSH [1, 2]: 0.04 ± 0.005 M⁻¹ s⁻¹ | rate constant (k) for the reaction with GSH [1, 3]: 0.23 ± 0.05 M⁻¹ s⁻¹ | k change (vs ref) [1, 4]: +9 fold | k/kref [1]: 9.2 | ΔΔG≠1exp [1]: -1.29 kcal/mol | ΔTm at 100 µM (p53-Y220C): 1.8 °C
